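Step 1: Grow cells in 96-well plates. Step 2: Expose to compound for 48 hours at 5 concentrations. Step 3: Interpolate endpoints linearly; if unreached, use highest concentration. GI50: concentration for 50% inhibition of growth. TGI is the concentration that stops growth completely.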
Key:
Experiment in all cases: NCI tumour cell line growth inhibition, 48 h
[1] = test system: HT29 colon
[2] = test system: CCRF-CEM leukemia
[3] = test system: HCC-2998 colon
[4] = test system: MOLT-4 leukemia
[5] = test system: SN12C renal
[6] = test system: HCT-116 colon
[7] = test system: IGROV1 ovarian
[8] = test system: HL-60(TB) leukemia
[9] = test system: NCI-H460 lung
[10] = test system: COLO 205 colon
[11] = test system: M14 melanoma
[12] = test system: DMS 114 small cell lung
[13] = test system: SNB-75 CNS
[14] = test system: SK-OV-3 ovarian
[15] = test system: U251 CNS
[16] = test system: EKVX NSCLC
[17] = test system: MALME-3M melanoma
[18] = test system: SNB-19 CNS
[19] = test system: RXF 393 renal
[20] = test system: HOP-92 NSCLC
[21] = test system: K-562 leukemia
[22] = test system: LOX IMVI melanoma
[23] = test system: SK-MEL-28 melanoma
[24] = test system: NCI-H522 lung
[25] = test system: SNB-78 CNS
[26] = test system: SW-620 colon
[27] = test system: LXFL 529 NSCLC
[28] = test system: M19-MEL melanoma
[29] = test system: ACHN renal
[30] = test system: DMS 273 small cell lung
[31] = test system: A498 renal
[32] = test system: CAKI-1 renal
[33] = test system: OVCAR-3 ovarian
[34] = test system: NCI-H226 lung
[35] = test system: SF-295 CNS
[36] = test system: SR leukemia
[37] = test system: OVCAR-5 ovarian
[38] = test system: HOP-62 NSCLC
[39] = test system: A549 NSCLC
[40] = test system: SF-268 CNS
[41] = test system: OVCAR-8 ovarian
[42] = test system: TK-10 renal
[43] = test system: UACC-257 melanoma
[44] = test system: UO-31 renal
[45] = test system: RPMI-8226 leukemia
[46] = test system: HOP-18 NSCLC
[47] = test system: UACC-62 melanoma
[48] = test system: SK-MEL-5 melanoma
[49] = test system: 786-0 renal
[50] = test system: OVCAR-4 ovarian
[51] = test system: KM20L2 colon
[52] = test system: KM12 colon
[53] = test system: NCI-H23 lung
[54] = test system: DLD-1 colon
[55] = test system: SF-539 CNS
[56] = test system: SK-MEL-2 melanoma
[57] = test system: HCT-15 colon

In the case of CCCCC(C(=O)CCC(=O)Nc1ccc(Cl)c(Cl)c1)C(=O)C(C)C (configuration not stated), the TGI [1] was over 100 µM, the TGI [2] was over 100 µM and the TGI [3] was over 100 µM. It also gave a TGI [4] of over 100 µM, a TGI [5] of over 100 µM and a TGI [6] of over 100 µM. It also gave a TGI [7] of over 100 µM, a TGI [8] of over 100 µM and a TGI [9] of over 100 µM. It also gave a TGI [10] of over 100 µM, a TGI [11] of over 100 µM and a TGI [12] of over 100 µM. It also gave a TGI [13] of 75 µM, a TGI [14] of over 100 µM and a TGI [15] of over 100 µM. The TGI [16] was over 100 µM, the TGI [17] was over 100 µM and the TGI [18] was over 100 µM. It also gave a TGI [19] of over 100 µM, a TGI [20] of over 100 µM and a TGI [21] of over 100 µM. The TGI [22] was over 100 µM, the TGI [23] was over 100 µM and the TGI [24] was over 100 µM. It also gave a TGI [25] of over 100 µM, a TGI [26] of over 100 µM and a TGI [27] of over 100 µM. The TGI [28] was over 100 µM, the TGI [29] was over 100 µM and the TGI [30] was over 100 µM. For the same compound, the TGI [31] was over 100 µM, the TGI [32] was over 100 µM and the TGI [33] was over 100 µM. The TGI [34] was over 100 µM, the TGI [35] was over 100 µM and the TGI [36] was over 100 µM. The TGI [37] was 88.8 µM, the TGI [38] was over 100 µM and the TGI [39] was over 100 µM. The TGI [40] was over 100 µM, the TGI [41] was over 100 µM and the TGI [42] was over 100 µM. The TGI [43] was over 100 µM, the TGI [44] was over 100 µM and the TGI [45] was over 100 µM. The TGI [46] was over 100 µM, the TGI [47] was over 100 µM and the TGI [48] was over 100 µM. For the same compound, the TGI [49] was over 100 µM, the TGI [50] was over 100 µM and the TGI [51] was over 100 µM. The TGI [52] was over 100 µM, the TGI [53] was over 100 µM and the TGI [54] was over 100 µM. For the same compound, the TGI [55] was over 100 µM, the TGI [56] was over 100 µM and the TGI [57] was over 100 µM.

For COC(=O)c1ccccc1N1C(=O)Cc2ccccc2C1=O, the TGI [1] was over 100 µM, the TGI [3] was over 100 µM and the TGI [4] was over 100 µM. For the same compound, the TGI [5] was over 100 µM, the TGI [7] was over 100 µM and the TGI [10] was over 100 µM. It also gave a TGI [12] of over 100 µM, a TGI [13] of 74 µM and a TGI [14] of over 100 µM. For the same compound, the TGI [15] was over 100 µM, the TGI [16] was over 100 µM and the TGI [17] was over 100 µM. The TGI [18] was over 100 µM, the TGI [19] was over 100 µM and the TGI [21] was over 100 µM. It also gave a TGI [23] of over 100 µM, a TGI [25] of over 100 µM and a TGI [26] of over 100 µM. It also gave a TGI [27] of over 100 µM, a TGI [28] of over 100 µM and a TGI [29] of over 100 µM. For the same compound, the TGI [30] was over 100 µM, the TGI [33] was over 100 µM and the TGI [34] was over 100 µM. For the same compound, the TGI [35] was over 100 µM, the TGI [36] was over 100 µM and the TGI [37] was over 100 µM. It also gave a TGI [39] of over 100 µM, a TGI [40] of over 100 µM and a TGI [41] of over 100 µM. It also gave a TGI [42] of over 100 µM, a TGI [43] of over 100 µM and a TGI [44] of over 100 µM. It also gave a TGI [45] of over 100 µM, a TGI [47] of over 100 µM and a TGI [48] of over 100 µM. The TGI [49] was over 100 µM, the TGI [51] was over 100 µM and the TGI [52] was over 100 µM. It also gave a TGI [53] of over 100 µM, a TGI [55] of over 100 µM and a TGI [56] of over 100 µM. It also gave a TGI [57] of over 100 µM.

Work on NC1CCCCC1N.O=[Se]([O-])[O-].[Pt+4] (configuration not stated) yielded a GI50 [1] of 0.169 µM, a TGI [1] of 17.5 µM and a GI50 [2] of 0.203 µM. The TGI [2] was 97.7 µM, the GI50 [3] was 2.98 µM and the TGI [3] was 11.1 µM. For the same compound, the GI50 [4] was 0.0775 µM, the TGI [4] was over 100 µM and the GI50 [5] was 1.67 µM. For the same compound, the TGI [5] was over 100 µM, the GI50 [6] was 0.236 µM and the TGI [6] was over 45.2 µM. It also gave a GI50 [7] of 2.11 µM, a TGI [7] of over 46 µM and a GI50 [8] of 0.315 µM. The TGI [8] was over 28.9 µM, the GI50 [9] was 0.205 µM and the TGI [9] was 5.15 µM. The GI50 [10] was 1.19 µM, the TGI [10] was 17.5 µM and the GI50 [11] was 2.51 µM. It also gave a TGI [11] of over 52.2 µM, a GI50 [13] of 66.3 µM and a TGI [13] of over 100 µM. The GI50 [14] was 27.8 µM, the TGI [14] was over 100 µM and the GI50 [15] was 0.666 µM. It also gave a TGI [15] of 15.7 µM, a GI50 [16] of over 35.2 µM and a TGI [16] of over 100 µM. The GI50 [17] was 0.986 µM, the TGI [17] was 5.26 µM and the GI50 [18] was 1.32 µM. It also gave a TGI [18] of over 100 µM, a GI50 [19] of 7.33 µM and a TGI [19] of 57.1 µM. The GI50 [20] was 25.3 µM, the TGI [20] was 82.1 µM and the GI50 [21] was 0.413 µM. The TGI [21] was over 49.8 µM, the GI50 [22] was 0.677 µM and the TGI [22] was over 100 µM. For the same compound, the GI50 [23] was 2.01 µM, the TGI [23] was 32.9 µM and the GI50 [24] was 0.589 µM. It also gave a TGI [24] of 11.2 µM, a GI50 [25] of 69.8 µM and a TGI [25] of over 100 µM. For the same compound, the GI50 [26] was 0.0901 µM, the TGI [26] was over 39.9 µM and the GI50 [27] was 6.25 µM. The TGI [27] was over 100 µM, the GI50 [28] was 0.412 µM and the TGI [28] was 15.5 µM. For the same compound, the GI50 [29] was 0.653 µM, the TGI [29] was over 52.4 µM and the GI50 [31] was 1.76 µM. It also gave a TGI [31] of 24.8 µM, a GI50 [32] of 1.08 µM and a TGI [32] of 45.3 µM. For the same compound, the GI50 [33] was 17 µM, the TGI [33] was over 100 µM and the GI50 [34] was 6.42 µM. For the same compound, the TGI [34] was 29.3 µM, the GI50 [35] was 0.304 µM and the TGI [35] was 21.6 µM. It also gave a GI50 [37] of 1.83 µM, a TGI [37] of 27.9 µM and a GI50 [38] of 2.52 µM. It also gave a TGI [38] of over 51.4 µM, a GI50 [39] of 0.48 µM and a TGI [39] of over 61.8 µM. The GI50 [40] was 0.549 µM, the TGI [40] was over 76.8 µM and the GI50 [41] was 0.922 µM. The TGI [41] was over 100 µM, the GI50 [42] was 28.4 µM and the TGI [42] was over 100 µM. For the same compound, the GI50 [43] was 2.18 µM, the TGI [43] was over 64.8 µM and the GI50 [44] was 1.05 µM. The TGI [44] was 16.7 µM, the GI50 [45] was under 0.0336 µM and the TGI [45] was over 37.1 µM. For the same compound, the GI50 [46] was 27 µM, the TGI [46] was over 100 µM and the GI50 [47] was 1.33 µM. It also gave a TGI [47] of over 41.8 µM, a GI50 [48] of 0.713 µM and a GI50 [49] of 0.0552 µM. The TGI [49] was 20.3 µM, the GI50 [50] was 2.63 µM and the TGI [50] was over 100 µM. For the same compound, the GI50 [51] was 0.233 µM, the TGI [51] was 26.9 µM and the GI50 [52] was 2.51 µM. The TGI [52] was over 100 µM, the GI50 [53] was 1.51 µM and the TGI [53] was 17.1 µM. For the same compound, the GI50 [54] was 1.81 µM, the TGI [54] was over 83.8 µM and the GI50 [55] was 1.18 µM. For the same compound, the TGI [55] was 20.6 µM, the GI50 [56] was 6 µM and the TGI [56] was 31.1 µM. It also gave a GI50 [57] of 0.747 µM and a TGI [57] of over 45.5 µM.
